Where a name gives a salt, the structure may show the parent alone.
Test system: aminopeptidases
Assay: In situ nasal perfusion: degradation of 100 µM leucine enkephalin in the nasal perfusate
Type: in vivo, Sprague-Dawley rats
Settings: for % Leucine Enkephalin Remaining: 0.1 µM inhibitor
Protocol: In order to evaluate the effectiveness of the α-aminoboronic acid derivative inhibitors of this invention, an animal model was used (according to A. Hussain, J. Furaj, A. Yukihiko and J. E. Truelove, Biochem. Biophys. Res. Com. 133, 923, 1985) to assess the degradation of proteins and peptides in situ and in vivo in situ in the nasal cavity of rats. The method involved the use of Sprague-Dawley rats weighing approximately 300 grams. Each rat was anesthetized with sodium pentobarbitol (50 mg/kg). An incision was made in the neck and the trachea was canulated with PE 240 tubing. For the in situ studies, a second tube, which served to introduce the perfusing solution, was inserted through the esophagus to the posterior part of the nasal cavity. The nasopalatine was closed with an adhesive to prevent drainage of the perfusing solution from the nasal to the oral cavity. For the in vivo in situ studies, the esophagus was canulated using PE 240 tubing closed at one end. The closed end was pushed to the posterior end of the nasal passage and then tied in place. The nasopalatine was closed with an adhesive to prevent drainage of the perfusing solution from the nasal to the oral cavity. The rats were dosed in one nostril with 50 µl of peptide solution in two forms; the control solution had no inhibitor added, the test solution had inhibitor added at concentrations specified in the examples shown below. The dosing solution was 0.1 M phosphate buffer (pH 7.4). At certain time intervals (one rat/time interval), the drug was washed from the nose via the other nostril with 10 ml of 0.1 M phosphate buffer (pH 3.8) using a peristaltic pump. The nasal washing was then placed in a 10 ml volumetric flask and adjusted to 10 ml with the same buffer and analyzed for the peptide by HPLC. The analysis of leucine enkephalin and its major metabolite involved taking aliquots of samples, diluting them with 200 µl of 0.1 M citric acid (pH 2.3) to quench hydrolysis and subjecting the samples to analysis (for in vivo in situ studies, the washings were injected as they were obtained). High Pressure Liquid Chromatography (HPLC) was run on a 4.6 x 250 mm C₈ column. The mobile phase consisted of 0.1 M NaH₂PO₄-H₃PO₄-acetonitrile (916 : 5 : 275) and was delivered at a flow rate of 1.7 ml/min. Detection was by UV at 210 nm. Retention times for leucine enkephalin and its major degradation product, Des-Tyr-leucine enkephalin were 7.3 and 4.8 min., respectively. Data were calculated as % of leucine enkephalin remaining in the nasal perfusate as a function of time, counting the concentration at zero time as 100%. In this example, a 10 ml solution of 0.1 M phosphate buffer solution (pH 7.4) containing 100 µM leucine enkephalin (the peptide) in the absence or presence of 0.1 µM 3-methyl-1(4,4,5,5-tetramethyl-1,3,2-dioxaborolane-2-yl)-1-butamine, trifluoroacetic acid salt (boroleucine) as the inhibitor was perfused nasally in rats as described above. A 10 ml portion of the peptide solution was placed in a water-jacketed container, maintained at 37°C and circulated through the nasal cavity of rats using a peristaltic pump. The perfusing solution was passed through the nasal cavity, out the nostrils, through a funnel, and returned to the water-jacketed container. The perfusate was analyzed by the ANALYTICAL METHOD described above.

## CC(C)CC(N)B1OC(C)(C)C(C)(C)O1 (centres unmarked) [boroleucine, 3-methyl-1(4,4,5,5-tetramethyl-1,3,2-dioxaborolane-2-yl)-1-butamine, trifluoroacetic acid salt]
0.01 µM Boroleucine (title: 0.1 µM), 0 min
  % of leucine enkephalin remaining in the nasal perfusate: 100.0±0.0%
0.01 µM Boroleucine (title: 0.1 µM), 5 min
  % of leucine enkephalin remaining in the nasal perfusate: 96.6±1.5%
0.01 µM Boroleucine (title: 0.1 µM), 10 min
  % of leucine enkephalin remaining in the nasal perfusate: 93.5±3.0%
0.01 µM Boroleucine (title: 0.1 µM), 20 min
  % of leucine enkephalin remaining in the nasal perfusate: 96.4±1.7%
0.01 µM Boroleucine (title: 0.1 µM), 30 min
  % of leucine enkephalin remaining in the nasal perfusate: 92.7±3.3%
0.01 µM Boroleucine (title: 0.1 µM), 45 min
  % of leucine enkephalin remaining in the nasal perfusate: 91.8±2.5%
0.01 µM Boroleucine (title: 0.1 µM), 90 min
  % of leucine enkephalin remaining in the nasal perfusate: 85.7±3.5%
0.01 µM inhibitor, 0 min
  % of leucine enkephalin remaining in the nasal perfusate: 100.0±0.0%
0.01 µM inhibitor, 10 min
  % of leucine enkephalin remaining in the nasal perfusate: 90.6±3.5%
0.01 µM inhibitor, 20 min
  % of leucine enkephalin remaining in the nasal perfusate: 89.1±5.3%
0.01 µM inhibitor, 30 min
  % of leucine enkephalin remaining in the nasal perfusate: 79.1±2.9%
0.01 µM inhibitor, 45 min
  % of leucine enkephalin remaining in the nasal perfusate: 74.9±2.8%
0.01 µM inhibitor, 60 min
  % of leucine enkephalin remaining in the nasal perfusate: 69.2±2.0%
0.01 µM inhibitor, 90 min
  % of leucine enkephalin remaining in the nasal perfusate: 56.2±1.6%
0.03 µM inhibitor, 0 min
  % of leucine enkephalin remaining in the nasal perfusate: 100.0±0.0%
0.03 µM inhibitor, 5 min
  % of leucine enkephalin remaining in the nasal perfusate: 94.1±1.7%
0.03 µM inhibitor, 10 min
  % of leucine enkephalin remaining in the nasal perfusate: 93.6±1.6%
0.03 µM inhibitor, 20 min
  % of leucine enkephalin remaining in the nasal perfusate: 91.8±2.2%
0.03 µM inhibitor, 30 min
  % of leucine enkephalin remaining in the nasal perfusate: 88.3±1.4%
0.03 µM inhibitor, 45 min
  % of leucine enkephalin remaining in the nasal perfusate: 85.7±1.3%
0.03 µM inhibitor, 60 min
  % of leucine enkephalin remaining in the nasal perfusate: 81.5±1.4%
0.03 µM inhibitor, 90 min
  % of leucine enkephalin remaining in the nasal perfusate: 72.9±1.0%
0.1 µM boroleucine, 10 µM bestatin, 100 µM puromycin
  order of inhibition of degradation: boroleucine> bestatin> puromycin
0 min
  % Leucine Enkephalin Remaining: 100.0±0.0%
5 min
  % Leucine Enkephalin Remaining: 96.6±1.5%
10 min
  % Leucine Enkephalin Remaining: 93.5±3.0%
20 min
  % Leucine Enkephalin Remaining: 96.4±1.7%
30 min
  % Leucine Enkephalin Remaining: 92.7±3.3%
45 min
  % Leucine Enkephalin Remaining: 91.8±2.5%
60 min
  % Leucine Enkephalin Remaining: 88.8±2.6%
90 min
  % Leucine Enkephalin Remaining: 85.6±3.5%
0.1 µM of each inhibitor
  comparison of the inhibitory effect of equimolar concentrations: superior to boroalanine

From patent publication EP0341661A2, “Peptide-drug compositions containing alpha-aminoboronic acid derivatives” (THE DU PONT MERCK PHARMACEUTICAL COMPANY, priority 1988, dated 1989)
